# Where two headings read alike, the source gives them in different places.
# Assays:
# [1] = Plasma stability assay, rat plasma; type: in vitro ADME; settings: 10 μM, 37° C.
# Method: Plasma stability determination of the test compounds in rat, dog, cynomolgus monkey and human plasma is performed using HPLC-MS. For rat, incubations are carried out in 96-well polypropylene plates in 5 aliquots of 70 μL each (one for each time point). […] Five time points are analyzed (0, 15, 120, 480 and 1440 min). For dog, monkey and human, test compounds (2 μM, final solvent concentration 1%) were also incubated at 37° C. and analyzed at five time points (0, 10, 30, 60 and 120 min). All incubations are performed in duplicates. The samples are analyzed by HPLC-MS. The percentage of parent compound remaining after incubation in plasma is determined.
# [2] = Polymorph screening of solid state drug substances; settings: for Dry method and appearance: after stirring 50 °C 72 hours, dried solid; for XRPD results (Dried): dried solid after 50 °C 72 hours; for Visual observation 50° C. / Visual observation RT: target conc. 100 mg/ml
# [3] = heating temp. 40 °C, obs. temp. 40 °C
# [4] = heating temp. 60 °C, obs. temp. 40 °C
# [5] = heating temp. 60 °C, obs. temp. 25 °C
structure (smiles),measurement,setting,value
"C=C1CC[C@@]2(O)C3Cc4ccc(OC(=O)CCCCCCCCCCCCCCCCCCCCC)c5c4[C@@]2(CCN3CC2CC2)[C@H]1O5 [Compound 14, (4aS,7aS,12bS)-3-(cyclopropylmethyl)-4a-hydroxy-7-methylene-2,3,4,4a,5,6,7,7a-octahydro-1H-4,12-methanobenzofuro[3,2-e]isoquinolin-9-yl docosanoate]",% remaining at time point,[1]; 0 min,100%
same,% remaining at time point,[1]; 15 min,94%
same,% remaining at time point,[1]; 120 min,112%
same,% remaining at time point,[1]; 480 min,107%
same,% remaining at time point,[1]; 1440 min,120%
same,Approximate Solubility (mg/mL) in Excipient: Cottonseed oil,[3],<50 mg/mL
same,Approximate Solubility (mg/mL) in Excipient: Cottonseed oil,[4],<25 mg/mL
same,Approximate Solubility (mg/mL) in Excipient: Ethanol,[3],69 to 83 mg/mL
same,Approximate Solubility (mg/mL) in Excipient: Sesame oil,[3],<51 mg/mL
same,Approximate Solubility (mg/mL) in Excipient: Sesame oil,[4],<25 mg/mL
same,Equilibrium solubility (mg/mL) Water,"compound after slurry in EtOAc, temperatures N/A",<0.0005 mg/mL
same,Equilibrium solubility (mg/mL) Water,"compound after slurry in Heptane, temperatures N/A",<0.0005 mg/mL
same,Dry method and appearance,[2]; Acetone,Evaporation/white powder
same,XRPD results (Dried),[2]; Acetone,Pattern A
same,Visual observation 50° C.,[2]; Acetone,Clear
same,Visual observation RT,[2]; Acetone,Slimy
same,Dry method and appearance,[2]; EtOAc,Evaporation/white powder
same,XRPD results (Dried),[2]; EtOAc,Pattern A
same,Visual observation 50° C.,[2]; EtOAc,Clear
same,Visual observation RT,[2]; EtOAc,Slurry
same,Dry method and appearance,[2]; Heptane,Centrifugation/white powder
same,XRPD results (Dried),[2]; Heptane,Pattern B
same,Visual observation 50° C.,[2]; Heptane,Slurry
same,Visual observation RT,[2]; Heptane,Slurry
same,Dry method and appearance,[2]; Isopropanol,Evaporation/white powder
same,XRPD results (Dried),[2]; Isopropanol,Pattern A
same,Visual observation 50° C.,[2]; Isopropanol,Clear
same,Visual observation RT,[2]; Isopropanol,Clear
same,Dry method and appearance,[2]; MTBE,Evaporation/white powder
same,XRPD results (Dried),[2]; MTBE,Pattern A
same,Visual observation 50° C.,[2]; MTBE,Clear
same,Visual observation RT,[2]; MTBE,Clear
"CCCCCCCCCCCCCCCCOC(=O)Oc1ccc2c3c1O[C@H]1C(=O)CC[C@@]4(O)C(C2)N(CC2CC2)CC[C@]314 [Compound 21, (4aS,7aR,12bS)-3-(cyclopropylmethyl)-4a-hydroxy-7-oxo-2,3,4,4a,5,6,7,7a-octahydro-1H-4,12-methanobenzofuro[3,2-e]isoquinolin-9-yl hexadecyl carbonate]",% remaining at time point,[1]; 0 min,100%
same,% remaining at time point,[1]; 15 min,73.5%
same,% remaining at time point,[1]; 120 min,68.3%
same,% remaining at time point,[1]; 480 min,59.8%
same,% remaining at time point,[1]; 1440 min,40.9%
same,Approximate Solubility (mg/mL) in Excipient: Cottonseed oil,[4],101 to 134.8 mg/mL
same,Approximate Solubility (mg/mL) in Excipient: Ethanol,[4],50 to 100 mg/mL
same,Approximate Solubility (mg/mL) in Excipient: Sesame oil,[4],101 to 134.5 mg/mL
same,Dry method and appearance,[2]; Acetone,Evaporation/white powder
same,XRPD results (Dried),[2]; Acetone,Pattern A
same,Visual observation 50° C.,[2]; Acetone,Clear
same,Visual observation RT,[2]; Acetone,Slurry
same,Dry method and appearance,[2]; EtOAc,Evaporation/white powder
same,XRPD results (Dried),[2]; EtOAc,Pattern A
same,Visual observation 50° C.,[2]; EtOAc,Clear
same,Visual observation RT,[2]; EtOAc,Slurry
same,Dry method and appearance,[2]; Heptane,Evaporation/white powder
same,XRPD results (Dried),[2]; Heptane,Pattern A
same,Visual observation 50° C.,[2]; Heptane,Clear
same,Visual observation RT,[2]; Heptane,Slurry
same,Dry method and appearance,[2]; Isopropanol,Evaporation/white powder
same,XRPD results (Dried),[2]; Isopropanol,Pattern A
same,Visual observation 50° C.,[2]; Isopropanol,Clear
same,Visual observation RT,[2]; Isopropanol,Slurry
same,Dry method and appearance,[2]; MTBE,Evaporation/white powder
same,XRPD results (Dried),[2]; MTBE,Pattern A
same,Visual observation 50° C.,[2]; MTBE,Clear
same,Visual observation RT,[2]; MTBE,Clear
"C=C1CC[C@@]2(O)C3Cc4ccc(OC(=O)OCCCCCCCCCCCCCCCC)c5c4[C@@]2(CCN3CC2CC2)[C@H]1O5 [Compound 19, (4aS,7aS,12bS)-3-(cyclopropylmethyl)-4a-hydroxy-7-methylene-2,3,4,4a,5,6,7,7a-octahydro-1H-4,12-methanobenzofuro[3,2-e]isoquinolin-9-yl hexadecyl carbonate]",% remaining at time point,[1]; 0 min,100%
same,% remaining at time point,[1]; 15 min,70.1%
same,% remaining at time point,[1]; 120 min,71.5%
same,% remaining at time point,[1]; 480 min,43.8%
same,% remaining at time point,[1]; 1440 min,33.3%
same,Approximate Solubility (mg/mL) in Excipient: Cottonseed oil,[3],67 to 80 mg/mL
same,Approximate Solubility (mg/mL) in Excipient: Ethanol,[3],27 to 42 mg/mL
same,Approximate Solubility (mg/mL) in Excipient: Sesame oil,[3],103 to 137 mg/mL
same,Dry method and appearance,[2]; Acetone,Evaporation/white powder
same,XRPD results (Dried),[2]; Acetone,Pattern A
same,Visual observation 50° C.,[2]; Acetone,Clear
same,Visual observation RT,[2]; Acetone,Slurry
same,Dry method and appearance,[2]; EtOAc,Evaporation/white powder
same,XRPD results (Dried),[2]; EtOAc,Pattern A
same,Visual observation 50° C.,[2]; EtOAc,Clear
same,Visual observation RT,[2]; EtOAc,Slurry
same,Dry method and appearance,[2]; Heptane,Evaporation/white powder
same,XRPD results (Dried),[2]; Heptane,Pattern A
same,Visual observation 50° C.,[2]; Heptane,Clear
same,Visual observation RT,[2]; Heptane,Slurry
same,Dry method and appearance,[2]; Isopropanol,Evaporation/white powder
same,XRPD results (Dried),[2]; Isopropanol,Pattern A
same,Visual observation 50° C.,[2]; Isopropanol,Clear
same,Visual observation RT,[2]; Isopropanol,Slurry
same,Dry method and appearance,[2]; MTBE,Evaporation/white powder
same,XRPD results (Dried),[2]; MTBE,Pattern A
same,Visual observation 50° C.,[2]; MTBE,Clear
same,Visual observation RT,[2]; MTBE,Clear
"C=C1CC[C@@]2(O)C3Cc4ccc(OC(=O)OCCCCCCCCCCCCCC)c5c4[C@@]2(CCN3CC2CC2)[C@H]1O5 [Compound 31, (4aS,7aS,12bS)-3-(cyclopropylmethyl)-4a-hydroxy-7-methylene-2,3,4,4a,5,6,7,7a-octahydro-1H-4,12-methanobenzofuro[3,2-e]isoquinolin-9-yl tetradecyl carbonate]",% remaining at time point,[1]; 0 min,100%
same,% remaining at time point,[1]; 15 min,123.2%
same,% remaining at time point,[1]; 120 min,73.5%
same,% remaining at time point,[1]; 480 min,54.4%
same,% remaining at time point,[1]; 1440 min,46.4%
same,Approximate Solubility (mg/mL) in Excipient: Cottonseed oil,[5],>416.9 mg/mL
same,Approximate Solubility (mg/mL) in Excipient: Sesame oil,[5],>413.5 mg/mL
same,Equilibrium solubility (mg/mL) Water,[3],<0.001 mg/mL
same,Dry method and appearance,[2]; Acetone,Evaporation/white powder
same,XRPD results (Dried),[2]; Acetone,Pattern A
same,Visual observation 50° C.,[2]; Acetone,Clear
same,Visual observation RT,[2]; Acetone,Slurry
same,Dry method and appearance,[2]; EtOAc,Evaporation/white powder
same,XRPD results (Dried),[2]; EtOAc,Pattern A
same,Visual observation 50° C.,[2]; EtOAc,Clear
same,Visual observation RT,[2]; EtOAc,Clear
same,Dry method and appearance,[2]; Heptane,Evaporation/white powder
same,XRPD results (Dried),[2]; Heptane,Pattern A
same,Visual observation 50° C.,[2]; Heptane,Clear
same,Visual observation RT,[2]; Heptane,Slurry
same,Dry method and appearance,[2]; Isopropanol,Evaporation/white powder
same,XRPD results (Dried),[2]; Isopropanol,Pattern A
same,Visual observation 50° C.,[2]; Isopropanol,Clear
same,Visual observation RT,[2]; Isopropanol,Clear
same,Dry method and appearance,[2]; MTBE,Evaporation/white powder
same,XRPD results (Dried),[2]; MTBE,Pattern A
same,Visual observation 50° C.,[2]; MTBE,Clear
same,Visual observation RT,[2]; MTBE,Slurry
"CCCCCCCCCCCCCCCCCCCCCC(=O)Oc1ccc2c3c1O[C@H]1C(=O)CC[C@@]4(O)C(C2)N(CC2CC2)CC[C@]314 [Compound 51, (4aS,7aR,12bS)-3-(cyclopropylmethyl)-4a-hydroxy-7-oxo-2,3,4,4a,5,6,7,7a-octahydro-1H-4,12-methanobenzofuro[3,2-e]isoquinolin-9-yl docosanoate]",% remaining at time point,[1]; 0 min,100%
same,% remaining at time point,[1]; 15 min,107.4%
same,% remaining at time point,[1]; 120 min,105.3%
same,% remaining at time point,[1]; 480 min,88.2%
same,% remaining at time point,[1]; 1440 min,92.7%
same,Approximate Solubility (mg/mL) in Excipient: Cottonseed oil,[5],<50 mg/mL
same,Approximate Solubility (mg/mL) in Excipient: Sesame oil,[5],<46 mg/mL
same,Equilibrium solubility (mg/mL) Water,[3],<0.001 mg/mL

# Reference: patent US10533015B1, “Opioid receptor antagonist prodrugs” (Nirsum Laboratories, Inc., priority 2019, dated 2020)
